Assay results published in article PMC11054638, “Transport of Non-Steroidal Anti-Inflammatory Drugs across an Oral Mucosa Epithelium In Vitro Model” (Pharmaceutics, 2024).

Assays:
[1] = system: COX-1 and COX-2 protein in TR146 cells; assay: Western blot for COX-1 and COX-2 after inflammation study; assay type: cell-based, human; conditions: 48 h treatment
[2] = system: TR146 oral mucosa in vitro model; assay: High-throughput (96.96) qPCR chip, mRNA expression after inflammation studies; assay type: cell-based, human; conditions: 48 h, normalised to control; mean ± SD
Procedure: ThinCerts® were seeded with cells as described above. […] Three days before the experiments, cell layers and blanks were washed twice on the basolateral compartment with 900 µL cultivation media (DMEM supplemented with 10% Fetal Calf Serum and 1% Penicillin/Streptomycin) to remove anti-inflammatory hydrocortisone residues (a component of media supplement HKGS) and were further cultivated in cultivation media.
Prior to treating cells with prepared DMEM solutions, TEER was measured in cultivation media DMEM supplemented with 1% Penicillin/Streptomycin and 10% Fetal Calf Serum. Subsequently, cell layers and blanks were washed with DMEM (without supplements) twice on the apical and basolateral compartment, followed by TEER measurements in DMEM. Media of cells were replaced with previously prepared DMEM solutions. Control media was applied on the blanks. […] Subsequently, 10 µM carboxyfluorescein was added to the apical DMEM solutions and incubated in the incubator at 37 °C for 2 h. Media were immediately collected and measured for the RFU content using the EnSpire as described above. Afterwards, media were stored at −20 °C until further usage. Two cell-grown ThinCerts^TM of each treatment were pooled as one sample with 350 µL lysis buffer supplemented with 1% ß-mercaptoethanol and stored at −80 °C for RNA isolation.
In short, RNA samples collected at the 48-hour timepoint of the inflammation studies and generated by pooling two cell-grown inserts were tested as duplicates on the expression of 95 markers and 1 negative control (H2O). The mRNA samples were amplified with three different primer pools containing 54 primers (PPIA, ACTB, GAPDH, B2M, CLDN1, CLDN2, CLDN3, CLDN4, CLDN5, CLDN6, CLDN7, CLDN8, CLDN9, CLDN10tva, […]
MARVELD2, ZO-1, ZO-2, ZO-3, SLC2A1, SLC7A1, SLC7A5, SLC16A1, ABCB1, ABCC1, ABCC2, ABCC3, ABCC4, ABCC5, ABCG2, INSR, LRP1, TFRC, VEGF-A, CDH5, VWF), 32 primers (CK1, CK4, […]
Quality control of generated data excluded Ct measured outside of the marker’s melting temperature ± 1.5 °C. To calculate the relative expression for each marker, the relative quantitative value was first calculated by subtracting the mean Ct values of control samples from the Ct values of treated samples and potentiating the resulting ΔCt by the power of 2 (=2ΔCt). The geometric mean of housekeeping genes […]
the relative quantitative value of each marker was divided by the calculated geometric mean of housekeeping genes of the respective sample. Subsequent expression values of treated samples were […]
Tested RNA samples were collected after three independent experiments with 4 treatment groups (Control, INF, INF+Ibu, Ibu) per experiment (N=12). Statistical analysis was performed as two-way ANOVA with post hoc Holm–Sidak test with *p<0.05, **p<0.01, ***p<0.001 and […]

Question: Which results are given for `CC(C)Cc1ccc(C(C)C(=O)O)cc1` (stereo not shown) [ibuprofen]?
Answer: COX-2 protein expression [1]: no up-regulation of COX-2; ABCB1 mRNA expression [2]: 1.01± 0.04 n-fold; ABCC1 mRNA expression [2]: 1.26± 0.46 n-fold; ABCC2 mRNA expression [2]: 0.7± 0.65 n-fold; ABCC3 mRNA expression [2]: 0.97± 1.21 n-fold; ABCC4 mRNA expression [2]: 1.46± 0.5 n-fold; ABCC5 mRNA expression [2]: 0.69± 0.34 n-fold; ABCG2 mRNA expression [2]: 0.87± 1.23 n-fold; AMY mRNA expression [2]: 0.38± 0.43 n-fold; AQP1 mRNA expression [2]: 0.34± 0.19 n-fold; AQP3 mRNA expression [2]: 0.76± 0.67 n-fold; AQP5 mRNA expression [2]: 1.57± 1.16 n-fold; AQP9 mRNA expression [2]: 0.93± 0.04 n-fold; AQP10 mRNA expression [2]: 1.38± 0.72 n-fold; AQP11 mRNA expression [2]: 0.66 ± 0.07 n-fold; CDH1 mRNA expression [2]: 0.93± 0.62 n-fold; CK1 mRNA expression [2]: 11.98± 16.81 n-fold; CK4 mRNA expression [2]: 1.53± 1.73 n-fold; CK5 mRNA expression [2]: 0.27± 0.28 n-fold; CK7 mRNA expression [2]: 3.07± 2.11 n-fold; CK8 mRNA expression [2]: 0.92± 0.68 n-fold; CK10 mRNA expression [2]: 1.63± 2.38 n-fold; CK13tv1 mRNA expression [2]: 1.34± 0.93 n-fold; CK14 mRNA expression [2]: 1.53± 0.93 n-fold; CK18 mRNA expression [2]: 0.79± 0.85 n-fold; CK19 mRNA expression [2]: 1.53± 0.26 n-fold; CLDN1 mRNA expression [2]: 0.52± 0.71 n-fold; CLDN2 mRNA expression [2]: 5.02 n-fold; CLDN3 mRNA expression [2]: 1.95 n-fold; CLDN4 mRNA expression [2]: 0.74± 1.1 n-fold; CLDN5 mRNA expression [2]: 7.17± 10.76 n-fold; CLDN6 mRNA expression [2]: 1.83± 0.78 n-fold; CLDN7 mRNA expression [2]: 0.51± 0.72 n-fold; CLDN8 mRNA expression [2]: 0.49± 0.46 n-fold; CLDN9 mRNA expression [2]: 1.07± 1.46 n-fold; CLDN10tva mRNA expression [2]: 1.49± 2.21 n-fold; CLDN11 mRNA expression [2]: 0.6± 0.1 n-fold; CLDN12tv1 mRNA expression [2]: 0.73± 0.3 n-fold; CLDN12tv2 mRNA expression [2]: 0.47± 0.35 n-fold; CLDN12tv3 mRNA expression [2]: 0.79± 0.25 n-fold; CLDN14 mRNA expression [2]: 1.51 n-fold; CLDN15 mRNA expression [2]: 0.98± 0.96 n-fold; CLDN16 mRNA expression [2]: 1.79± 1.1 n-fold; CLDN17 mRNA expression [2]: 1.66± 1.15 n-fold; CLDN18tv2a mRNA expression [2]: 6.08± 8.62 n-fold; CLDN21 mRNA expression [2]: 1.29 n-fold; CLDN22 mRNA expression [2]: 0.4± 0.53 n-fold; CLDN24 mRNA expression [2]: 0.62 n-fold; CLDN25tv1-4 mRNA expression [2]: 0.65± 0.77 n-fold; CLDN25tv7 mRNA expression [2]: 1.34± 0.38 n-fold; CLDN27 mRNA expression [2]: 0.26 n-fold; DSG3 mRNA expression [2]: 0.83± 0.85 n-fold; INSR mRNA expression [2]: 0.52± 0.39 n-fold; JAM1 mRNA expression [2]: 0.5± 0.67 n-fold; JAM2 mRNA expression [2]: 0.55 n-fold; LOR mRNA expression [2]: 2.69± 2.89 n-fold; LRP1 mRNA expression [2]: 0.68± 0.36 n-fold; MARVELD2 mRNA expression [2]: 2.92± 1.97 n-fold; MFSD2A mRNA expression [2]: 0.85± 0.6 n-fold; MUC1A mRNA expression [2]: 0.53± 0.42 n-fold; MUC1B mRNA expression [2]: 0.81± 0.36 n-fold; MUC3A mRNA expression [2]: 2.34± 2.52 n-fold; MUC5AC mRNA expression [2]: 0.76± 0.17 n-fold; MUC15tv2 mRNA expression [2]: 0.46± 0.21 n-fold; MUC18 mRNA expression [2]: 0.89± 0.56 n-fold; MUC20 mRNA expression [2]: 1.43± 0.61 n-fold; OCLN mRNA expression [2]: 1.16± 1.05 n-fold; PECAM1 mRNA expression [2]: 0.77 n-fold; SLC2A1 mRNA expression [2]: 0.4± 0.26 n-fold; SLC7A1 mRNA expression [2]: 0.54± 0.49 n-fold; SLC7A5 mRNA expression [2]: 0.56± 0.91 n-fold; SLC16A1 mRNA expression [2]: 0.32± 0.48 n-fold; TFRC mRNA expression [2]: 0.79± 0.87 n-fold; VEGF-A mRNA expression [2]: 0.5± 0.27 n-fold; VIM mRNA expression [2]: 0.56± 0.52 n-fold; VWF mRNA expression [2]: 1.28 n-fold; ZO-1 mRNA expression [2]: 0.91± 0.81 n-fold; ZO-2 mRNA expression [2]: 1.26± 0.5 n-fold; ZO-3 mRNA expression [2]: 0.51± 0.84 n-fold
